According to paper PMC3997752, “Molecular characterization of Plasmodium falciparum uracil-DNA glycosylase and its potential as a new anti-malarial drug target” (Malaria Journal, 2014):

Tests used:
[1] = system: human UDG; set-up: method as in PMID 8391260; conditions: purified human HeLa UDG; cited from earlier work
[2] = target: recombinant PfUDG (Plasmodium falciparum, UniProt Q8ILU6, P157T); assay: Inhibition of recombinant PfUDG activity (32P-labelled oligo-U glycosylase assay); assay type: biochemical; conditions: for Inhibitory effect of UGI on recombinant PfUDG: 1:1 molar ratio of PfUDG and UGI
recombinant PfUDG, sequence (Q8ILU6 whole entry P157T): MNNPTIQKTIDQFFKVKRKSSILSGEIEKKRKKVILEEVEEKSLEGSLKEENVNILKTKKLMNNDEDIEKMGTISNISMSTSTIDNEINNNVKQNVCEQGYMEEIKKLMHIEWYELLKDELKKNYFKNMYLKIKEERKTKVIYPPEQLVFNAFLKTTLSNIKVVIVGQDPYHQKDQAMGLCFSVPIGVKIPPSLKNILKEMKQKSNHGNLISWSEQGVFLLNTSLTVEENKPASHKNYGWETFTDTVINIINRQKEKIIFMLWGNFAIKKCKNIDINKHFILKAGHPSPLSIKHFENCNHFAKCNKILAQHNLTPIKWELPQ
Procedure: (§1) The UDG activity assay (20 μl) consisted of standard reaction buffer containing 20 mM Tris–HCl pH 8.0, 1 mM DTT, 1 mM EDTA, 50 mM NaCl, 100 μg/ml BSA, 10 pmol ^32P-labelled oligo-U, and 20 ng of PfUDG at 37°C for 20 min. The glycosylase activity was stopped by heating at 100°C for 1 min, the resulting apurinic/apyrimidinic site (AP site) was incised by hot alkaline treatment with 0.1 M NaOH (final concentration) at 95°C for 10 min, and the reaction was neutralized with 0.1 M HCl (final concentration). The AP lyase activity assay of PfUDG was examined under the same condition as UDG activity assay except without hot alkaline treatment. Reaction products were analysed on 8 M urea-16% denaturing PAGE and exposed to X-ray film for autoradiography for visualization. The radioactive intensity of sliced substrate and product bands from the gel were measured in a 1450 MicroBeta® Trilux Liquid Scintillation Counter (Perkin Elmer) as counts per minute (cpm). The amounts of substrate and product (pmol) were determined from radioactive intensity. One unit of activity is defined as the amount of PfUDG required for releasing 1 pmol of uracil in 1 min at 37°C in standard reaction buffer (20 mM Tris–HCl pH 8.0, 50 mM NaCl, 1 mM EDTA, 1 mM DTT, and 100 μg/ml BSA) with ^32P-labelled single stranded oligo-U substrate.
Two types of UDG inhibitors, UGI protein and synthetic uracil-derived compounds, were tested for their inhibitory effects on PfUDG. UGI protein of B. subtilis bacteriophage PBS1 (New England BioLabs) was used against native and recombinant PfUDG with 10 pmol ^32P-labelled single stranded oligo-U in the standard reaction buffer at 37°C for 20 min. The synthetic uracil-derived compounds were also used at various concentrations (5–640 μM) with 20 ng of recombinant PfUDG and 10 pmol ^32P-labelled single stranded oligo-U in the standard reaction buffer at 37°C for 20 min. The same 0.4% (v/v final concentration) of DMSO was used as solvent control to determine its effects on enzyme activity. The dose–response curves of relative activities of PfUDG and various compound concentrations were generated, and half-maximal inhibitory concentration (IC50), the concentration of compound to inhibit enzyme activity by 50%, was obtained using SigmaPlot 12.0.

[3] = system: P. falciparum K1 strain; assay: Inhibition of parasite growth in vitro, SYBR Green I based assay; assay type: cell-based; conditions: Plasmodium falciparum, synchronized ring stage K1 strain
Procedure: The synchronized ring stage of P. falciparum K1 strain was prepared from mixed stage parasite culture by 5% D-sorbitol treatment. The ring stage parasite was then mixed with culture medium containing RPMI 1640 supplemented with 10% human serum. Various concentrations of each uracil-derived compound were tested at 2-fold serial dilutions in triplicate. Their inhibitory effects on parasite growth were determined by SYBR Green I based assay. The fluorescent intensity was measured by Varioskan Flash Multimode Reader (Thermo Scientific, Vantaa, Finland) with excitation and emission wavelengths of 485 and 535 nm, respectively. The percentage of fluorescent intensity at each compound concentration compared with negative control was indicative of the parasite growth. The dose–response curves of fluorescent intensity and compound concentrations were generated, and IC50, the concentration of compound to inhibit parasite growth by 50%, was obtained using SigmaPlot 12.0.

[4] = Cytotoxicity test, MTT colorimetric assay; assay type: cell-based; conditions: human, HepG2 cells
Procedure: The uracil-derived compounds showing inhibitory effects on PfUDG were assayed for cytotoxicity to human hepatocyte carcinoma cell line ATCC HB 8665 (HepG2) by in vitro cytotoxicity test. The methylthiazol tetrazolium (MTT)-dye based colorimetric microtitration assay was used for detecting cell survival based on the metabolism of tetrazolium to formazan by viable cells. The OD of formazan was measured by a Molecular Devices Microplate Reader (Molecular Devices, CA, USA) at a wavelength of 570 nm. The OD570 represented the cell survival, and the percentage of cell survival at each compound concentration was determined by comparing with the OD570 of negative control lacking compounds. The dose–response curves of % cell survival, and compound concentrations and IC50 were obtained. IC50 representing the concentration of compounds providing 50% cell survival indicated the cytotoxicity of compounds.

[5] = system: HSV-1 UDG; set-up: method as in PMID 8391260; conditions: HSV-1 UDG purified from HSV-1-infected HeLa cells; cited from earlier work
[6] = system: native PfUDG; assay: Inhibition of native PfUDG activity by UGI (32P-labelled oligo-U glycosylase assay); assay type: biochemical, Plasmodium falciparum; conditions: 1:1 molar ratio of PfUDG and UGI
Procedure: as §1, with “substrate. […]” for “substrate.”

[7] = listed as uracil glycosylase inhibitor protein

CCCCCCCCc1ccc(Nc2cc(=O)[nH]c(=O)[nH]2)cc1 [6-(4-n-octylanilino)uracil, 6-(4-n-Octylanilino)uracil]
IC50 [1]: > 300 µM

O=c1cc(NNc2ccccc2)[nH]c(=O)[nH]1 [compound 2, 6-(Phenylhydrazino)uracil]
IC50 [2]: 77.5 µM
IC50 [3]: 12.8 µM
IC50 [4]: 27.5 ± 4.58 µM

CCCCCCCc1ccc(Nc2cc(=O)[nH]c(=O)[nH]2)cc1 [compound 3, 6-(p-n-Heptylanilino)uracil]
IC50 [2]: > 400 µM
IC50 [3]: 5 µM
IC50 [5]: 20 µM

Cc1ccc(Nc2cc(=O)[nH]c(=O)[nH]2)cc1 [compound 4, 6-(4-Methylanilino)uracil]
IC50 [2]: > 400 µM
IC50 [3]: 7.1 µM

CCCc1ccc(Nc2cc(=O)[nH]c(=O)[nH]2)cc1 [compound 5, 6-(p-n-Propylanilino)uracil]
IC50 [2]: > 400 µM
IC50 [3]: 7.9 µM

O=c1cc[nH]c(=O)[nH]1 [compound 6, Uracil]
IC50 [2]: > 400 µM
IC50 [3]: 10 µM

CCCCc1ccc(Nc2cc(=O)[nH]c(=O)[nH]2)cc1 [compound 7, 6-(p-n-Butylanilino)uracil]
IC50 [2]: > 400 µM
IC50 [3]: 10 µM
IC50 [5]: 150 µM

CCc1cc(Nc2cc(=O)n(CCCCO)c(=O)[nH]2)ccc1C [compound 8, 3-(4-Hydroxybutyl)-6-(3-ethyl-4-methylanilino)uracil]
IC50 [2]: > 400 µM
IC50 [3]: 10.2 µM

CCCCCc1ccc(Nc2cc(=O)[nH]c(=O)[nH]2)cc1 [compound 9, 6-(p-n-Pentylanilino)uracil]
IC50 [2]: > 400 µM
IC50 [3]: 10.5 µM
IC50 [5]: 30 µM

CC(C)CCc1ccc(Nc2cc(=O)[nH]c(=O)[nH]2)cc1 [compound 10, 6-(p-i-Pentylanilino)uracil]
IC50 [2]: > 400 µM
IC50 [3]: 11 µM
IC50 [5]: 140 µM

CC(C)c1ccc(Nc2cc(O)nc(O)n2)cc1 [compound 11, 6-(p-i-Propylanilino)uracil]
IC50 [2]: > 400 µM
IC50 [3]: 12.6 µM

CC(C)Cc1ccc(Nc2cc(=O)[nH]c(=O)[nH]2)cc1 [compound 12, 6-(p-i-Butylanilino)uracil]
IC50 [2]: > 400 µM
IC50 [3]: 16.5 µM

B1: UGI: UGI protein of B. subtilis bacteriophage PBS1 (New England BioLabs), a well-known UDG inhibitor (protein, UniProt P14739 1-84, looked up)
Uracil-DNA glycosylase …: MTNLSDIIEKETGKQLVIQESILMLPEEVEEVIGNKPESDILVHTAYDESTDENVMLLTSDAPEYKPWALVIQDSNGENKIKML
Inhibitory effect of UGI on recombinant PfUDG [2]: completely inhibited
Inhibitory effect of UGI on recombinant PfUDG [2, 7]: inhibited
Inhibitory effect of UGI on native PfUDG [6]: completely inhibited
Inhibitory effect of UGI on native PfUDG [6, 7]: inhibited
